Measured values as given in paper PMC6028453, “BrlR from Pseudomonas aeruginosa is a receptor for both cyclic di-GMP and pyocyanin” (Nature Communications, 2018).
Values joined by “and” are separate entries in the source; they are usually repeats but may differ in a detail not shown here. Identical values can stand only once.

How the values were obtained:
BrlR [1] = biological target: T1, BrlR (Pseudomonas aeruginosa, UniProt Q9HUT5); test: Surface plasmon resonance (SPR) analysis; format: binding
T1 construct: His6-SUMO (N, cleaved yes); made in house; host or cells: E. coli BL21 DE3
Procedure: The binding affinity of diverse toxic compounds for BrlR were investigated by SPR using a BIAcore-T200 apparatus (GE Healthcare). The ligand, BrlR (20 μM in 10 mM sodium acetate, pH 4.5), was immobilized on an activated CM5 sensor chip by amine coupling (BIAcore) with 4400 response units (RU), and the unreacted sites were blocked with 1.0 M ethanolamine–HCl (pH 8.5). Steady-state binding analysis was performed with injections of different molecules at different concentrations over the immobilized BrlR surface at a flow rate of 20 μL min^−1 at 25 °C. Association was measured for 180 s, followed by 120 s of dissociation in running buffer (20 mM Hepes pH 7.5, 150 mM NaCl). The sensorgrams for specific interactions were obtained by subtracting the reference unimmobilized flow cell response from that of the sample. Since BrlR only has one binding site for pyocyanin or other toxic compounds (Fig. 5a–f), the kinetic analysis of the sensorgrams from analyte interaction with the immobilized BrlR was performed by fitting the binding curves to a 1:1 binding model. To determine the steady state KD values, equilibrium responses were plotted against analyte concentrations, and the resulting curves were fitted to the steady state model in the BIAevaluation software package, version 3.0 (GE Healthcare).

[2] = biological target: Per-Arnt-Sim (PAS) domain of PA14_07500 (RmcA); set-up: method as in earlier work; settings: intrinsic fluorescence quenching method; ref 4 (Okegbe et al., 2017) of response letter; cited from earlier work
brlR transcription = test: qRT-PCR of brlR transcript; format: cell-based, P. aeruginosa PAO1
Procedure: PAO1 WT strains were grown under different conditions. For c-di-GMP effects, overexpression of PA4843 in PAO1 (PAO1/pHERD20T-PA4843) relative to WT cells (PAO1/ pHERD20T) was determined. When P. aeruginosa strains entered mid-log phase, arabinose was added to induce gene expression. To test pyocyanin’s effect, a P. aeruginosa PAO1 WT strain cells with high pyocyanin production was determined relative to a ΔphzA1-G1/phzA2-G2 strain not producing phenazine and a ΔphzMSH strain not producing pyocyanin.
Total RNA was extracted using a MiniBEST Universal RNA Extraction Kit (TaKaRa) and cDNA synthesis was performed using a PrimeScript RT reagent Kit (TaKaRa). Primers for RT-PCR listed in Supplementary Table 1 were designed using the program PrimerExpress (Applied Biosystems). The RT-PCR reactions were performed on a CFX96 Real-Time PCR Detection System (Bio-Rad) using SYBR Premix Ex Taq™ (TaKaRa). Expression of the target genes was normalized to the expression of 16 S RNA. The relative transcript abundance was calculated according to the 2^−ΔΔCt method. Five biological replicates were performed per sample. The data were analyzed with a one-tailed t-test (***P ≤ 0.001).

BrlR-DNA binding (PbrlR) = biological target: T2, BrlR-DNA binding (PbrlR) (Pseudomonas aeruginosa, UniProt Q9HUT5); test: EMSA, wild-type BrlR with PbrlR DNA; format: biochemical
T2 construct: His6-SUMO (N, cleaved yes); made in house; host or cells: E. coli BL21 DE3
Procedure: (§1) A 6-carboxy-fluorescein (FAM)-labeled 36-bp brlR promoter DNA (PbrlR) or 80-bp mexA/mexE promoter DNA (PmexA/PmexE) probes (~0.375 pmol), BrlR protein and varying amounts of inducers were incubated in binding buffer (10 mM Tris HCl [pH 7.4], 50 mM KCl, 1 mM DTT, […] and 5 ng/mL poly [dI-dC]) for 60 min at 25 °C. Finally, glycerol was added to a concentration of 6.5%. The samples were subjected to a 5% polyacrylamide gel electrophoresis and run in 0.5 × Tris-borate-EDTA buffer at 80 V for 1 h at room temperature. Imaging and data analyses were performed using a Typhoon Scanner (GE Healthcare) and Imagequant software. The probes used are listed in Supplementary Table 1.

brlR [3] = system: brlR; set-up: method as in PMID 16879411; settings: addition of pyocyanin to P. aeruginosa PA14 strain; cited from earlier work
BrlR Y249A DNA binding = biological target: T3, BrlR Y249A DNA binding (Pseudomonas aeruginosa, UniProt Q9HUT5, Y249A); test: EMSA, BrlR Y249A with PbrlR; format: biochemical
T3 construct: His6-SUMO (N, cleaved yes); made in house; host or cells: E. coli BL21 DE3
Procedure: (§2) It is unlikely that the larger drug molecules located in the canonical binding pocket can slide into the pyocyanin binding site and promote BrlR-DNA binding, as reflected by the EMSA results for tobramycin (Fig. 6a). To further verify the amino acid residues contributing to pyocyanin binding, many BrlR mutants were constructed. Whereas mutant E247A was insoluble, mutant F253R was not expressed, and mutant C173W was unstable. The binding affinity of Y183A and Y249A for pyocyanin were evaluated by using EMSA with a 36-bp PbrlR.
as §1

BrlR Y183A DNA binding = biological target: T4, BrlR Y183A DNA binding (Pseudomonas aeruginosa, UniProt Q9HUT5, Y183A); test: EMSA, BrlR Y183A with PbrlR; format: biochemical
T4 construct: His6-SUMO (N, cleaved yes); made in house; host or cells: E. coli BL21 DE3
Procedure: as §2, §1

ΔbrlR cells = test: Planktonic antibiotic susceptibility testing, ΔbrlR; format: cell-based, Pseudomonas aeruginosa; settings: 50 μg/ml tobramycin 1 h, 0.2 mM pyocyanin
Procedure: To determine the role of pyocyanin in antimicrobial susceptibility, P. aeruginosa strains (Supplementary Table 2) were grown at 37 °C in 20-fold diluted LB medium supplemented with or without 0.2 mM pyocyanin, which was purified from stationary phase cultures of PAO1. Tobramycin was added to the mid-log phase (OD600 = 0.8) cells suspension to a final concentration of 50 μg/ml; after 1 h, the broth was serially diluted and spread-printed onto LB agar (medium containing 300 μg/ml carbenicillin was used for the cells harboring plasmid) to determine the cell viability via CFU counts. The cell suspensions without tobramycin were set as controls. Susceptibility is expressed as a logarithmic reduction in CFU amount. The data were analyzed with a one-tailed t-test (***P ≤ 0.001).

[4] = biological target: T5, BrlR binding to PmexA and PmexE (Pseudomonas aeruginosa, UniProt Q9HUT5); test: EMSA, BrlR with PmexA and PmexE; format: biochemical; settings: increasing concentrations of pyocyanin
T5 construct: His6-SUMO (N, cleaved yes); made in house; host or cells: E. coli BL21 DE3
Procedure: as §1

T2 sequence (Q9HUT5 whole entry): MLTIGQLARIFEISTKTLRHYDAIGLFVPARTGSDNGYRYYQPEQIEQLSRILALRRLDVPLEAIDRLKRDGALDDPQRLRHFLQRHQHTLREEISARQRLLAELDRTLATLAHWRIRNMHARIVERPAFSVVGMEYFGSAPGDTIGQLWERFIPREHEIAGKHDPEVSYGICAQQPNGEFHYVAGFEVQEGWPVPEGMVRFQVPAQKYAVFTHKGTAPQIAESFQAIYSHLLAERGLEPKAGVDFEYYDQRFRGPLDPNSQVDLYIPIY
T1 sequence (Q9HUT5 whole entry): as above
T5 sequence (Q9HUT5 whole entry): as above
T4 sequence (Q9HUT5 whole entry Y183A): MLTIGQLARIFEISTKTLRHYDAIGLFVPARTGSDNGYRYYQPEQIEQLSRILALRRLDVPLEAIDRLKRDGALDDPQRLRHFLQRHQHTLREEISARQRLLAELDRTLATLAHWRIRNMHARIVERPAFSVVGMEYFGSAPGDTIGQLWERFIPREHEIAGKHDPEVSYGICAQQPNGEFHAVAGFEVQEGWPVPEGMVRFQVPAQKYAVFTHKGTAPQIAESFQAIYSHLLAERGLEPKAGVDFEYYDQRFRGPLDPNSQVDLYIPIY
T3 sequence (Q9HUT5 whole entry Y249A): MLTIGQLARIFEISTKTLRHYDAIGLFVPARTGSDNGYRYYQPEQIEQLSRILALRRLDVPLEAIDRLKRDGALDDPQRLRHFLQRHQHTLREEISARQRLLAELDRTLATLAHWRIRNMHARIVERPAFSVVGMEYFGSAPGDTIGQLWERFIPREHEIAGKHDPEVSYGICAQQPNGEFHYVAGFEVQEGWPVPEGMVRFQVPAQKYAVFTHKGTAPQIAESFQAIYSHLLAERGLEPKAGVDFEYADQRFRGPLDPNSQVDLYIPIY

For `Cn1c2cccc(=O)c-2nc2ccccc21` [pyocyanin, 5-N-methyl-1-hydroxyphenazine], the “binding affinity relative to tobramycin” value (BrlR [1]; SPR KD 4.5 μM vs 0.64 mM) is listed as ~ 140 fold, the Kd (BrlR [1]; SPR, immobilized BrlR, steady state, 25 °C) is listed as 4.52 µM and 4.5 µM and the Kd [2] is listed as 3 µM. The “brlR expression level, PAO1 vs ΔphzA1-G1/phzA2-G2 strain” value (brlR transcription; PAO1 at high pyocyanin production vs strain not producing phenazine) was ~ 4.0 fold, the “brlR expression level, PAO1 vs ΔphzMSH strain” value (brlR transcription; PAO1 at high pyocyanin production vs strain with no pyocyanin production) was ~ 5.3 fold and the “effect of c-di-GMP and pyocyanin together on BrlR-DNA binding” value (BrlR-DNA binding (PbrlR); PbrlR, c-di-GMP, pyocyanin, and both) was “cooperatively enhance”. The “DNA bound in the presence vs absence of pyocyanin” value (BrlR-DNA binding (PbrlR); wild-type BrlR, PbrlR) was 5.47 fold, the “effect on BrlR-PbrlR DNA binding (in words)” value (BrlR-DNA binding (PbrlR); wild-type BrlR, increasing concentrations of compound) was “significant increase” and the “up-regulation of brlR” value (brlR [3]) was 2.3 fold. For the same compound, the “DNA bound in the presence vs absence of pyocyanin” value (BrlR Y249A DNA binding) was 4.15 fold, the “DNA bound in the presence vs absence of pyocyanin” value (BrlR Y183A DNA binding) was 3.23 fold and the “viability of tobramycin-treated cells with vs without pyocyanin” value (ΔbrlR cells) was “no significant difference”. The “effect on BrlR binding to PmexA and PmexE” value [4] was “enhanced”.
